Results as given in ChEMBL document CHEMBL3639247, “Pyrazole compounds as CRTH2 antagonists” (2014).

Molecular target: T1, Prostaglandin D2 receptor 2 (Homo sapiens, UniProt Q9Y5Y4)
T1 sequence (Q9Y5Y4 whole entry): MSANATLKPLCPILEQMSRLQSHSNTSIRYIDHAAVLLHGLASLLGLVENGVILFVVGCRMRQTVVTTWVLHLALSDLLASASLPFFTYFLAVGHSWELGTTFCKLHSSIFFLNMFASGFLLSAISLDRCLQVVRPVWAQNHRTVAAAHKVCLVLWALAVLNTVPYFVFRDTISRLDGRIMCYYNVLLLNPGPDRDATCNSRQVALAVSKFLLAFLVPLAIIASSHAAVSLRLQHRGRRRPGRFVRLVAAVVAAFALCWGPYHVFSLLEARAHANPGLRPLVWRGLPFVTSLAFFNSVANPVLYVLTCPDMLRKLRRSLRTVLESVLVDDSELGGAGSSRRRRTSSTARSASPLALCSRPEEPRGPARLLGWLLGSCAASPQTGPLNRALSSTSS
Experiment: Radioligand Binding Assay: The CRTH2 receptor binding assay is performed in a scintillation proximity assay (SPA) format with the radioligand [3H]-PGD2 (Perkin Elmer, NET616000MC). CHO-K1-hCRTH2 cell membranes are again homogenized by passing through a single use needle (Terumo, 23Gx1'') and diluted in SPA incubation buffer in suitable concentrations (0.5-10 ug protein/well). The SPA assay is set up in 96 well microtiter plates (Perkin Elmer, CatNo. 6005040) in SPA incubation buffer with a final volume of 200 ul per well and final concentration of 50 mM Tris-HCl, 10 mM MgCl2, 150 mM NaCl, 1 mM EDTA pH 7.4, 0.1% bovine serum albumin). The SPA assay mixture contains 60 ul of the membrane suspension, 80 ul of Wheat Germ Agglutinin coated PVT beads (GE Healthcare, RPNQ-0001, 0.3 mg/well), 40 ul of [3H]-PGD2 diluted in SPA buffer to a final concentration of 1 nM (50 000 dpm) and 20 ul of the test compound (dissolved in dimethylsulfoxid).

Ki: 23.9 nM
Structure (SMILES): CCc1nn(Cc2ccc(NC(=O)C3CCC(C(F)(F)F)CC3)cc2)c(CC)c1CC(=O)O (stereo unspecified)
